One may read the pIC50 as the IC50 on a negative log10 scale, so that one unit is a factor of ten. Lower therefore signals a high IC50.

For test [1], the system named is cutaneous anaphylaxis in passively sensitized rats. Briefly: Inhibition of allergic mediator release in the rat passive cutaneous anaphylaxis test. The settings on record: po, p.o., read-out: ID50 inhibition of allergic mediator release (PCA test). It counts as in vivo, rat (Sprague-Dawley). As for the experimental part: (i) Inhibition of Cutaneous Anaphylaxis in Passively Sensitized Rats
(l) Preparation of Antiserum
IgE-containing rat antiserum (reaginic antiserum) was prepared according to the following procedure. Normal, male Sprague-Dawley rats (150-200 g) obtained from Charles River Laboratories, Wilmington, Mass., were immunized by an intraperitoneal injection of 0.5 ml Bordetella pertussis vaccine (Cannaught Laboratories, Willowdale, Toronto, Canada, 20 ou/ml) containing 100 μg egg albumin (Nutritional Biochemical Corp., Cleveland, Ohio). On day 16, Nippostrongylus brasiliensis (3000 larvae/0.1 ml) was administered subcutaneously and on day 21, 10 μg of egg albumin was administered intraperitoneally in 0.5 ml normal saline. On day 30, blood was collected by heart puncture and the serum was separated by centrifugation and refrigerated overnight at 5° C. […]
The passive cutaneous anaphylaxis (PCA) test was performed on 190-220 g male Sprague-Dawley rats (Charles River Breeding Laboratories, Wilmington, Mass.), in a manner similar to that described by J. Goose and A.M.J.N. Blair, Immunology, 16, 749(1969). […] The long and short axis of each wheal was measured with a metric vernier caliper and the average diameter was obtained for each reaction. […] The ID50 was calculated by the method of J. Berkson, J.Am.Stat.Assoc., 48, 565(1953).

Test [2] has as its target T1, PAF radioreceptor (dog platelets) (Canis lupus familiaris, UniProt A0A8I3NSH0).
T1 construct: Platelet rich plasma is prepared by centrifugation of citrate-treated dog blood; from tissue; host or cells: washed dog platelets
T1 sequence (A0A8I3NSH0 1-343): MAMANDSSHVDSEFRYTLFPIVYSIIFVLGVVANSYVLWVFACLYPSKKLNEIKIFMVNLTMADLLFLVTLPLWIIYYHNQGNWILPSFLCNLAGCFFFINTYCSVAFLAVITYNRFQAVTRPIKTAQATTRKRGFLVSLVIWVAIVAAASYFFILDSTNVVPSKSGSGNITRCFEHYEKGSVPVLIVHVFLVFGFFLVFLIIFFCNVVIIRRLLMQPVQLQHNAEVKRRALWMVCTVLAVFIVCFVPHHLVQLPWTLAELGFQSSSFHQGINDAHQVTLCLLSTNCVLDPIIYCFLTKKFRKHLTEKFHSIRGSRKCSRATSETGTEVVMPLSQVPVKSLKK
The test can be described thus: PAF radioreceptor binding assay. The conditions noted are these: 3H-PAF. How it is done: (m) PAF Radioreceptor Binding Assay
Platelet rich plasma is prepared by centrifugation of citrate-treated dog blood. Acidification to pH 6.5 with 0.15M citric acid and centrifugation for 10 minutes at 1000 g yields a platelet pellet which is then washed by resuspension in EDTA-Phosphate Buffered Saline (PBS) and recentrifuged. The washed platelet preparation is adjusted to 2×10^7 platelets/50 μl in 0.1% BSA-PBS.
To a […] microfuge tube containing 50 μl silicone oil (specific gravity 1.023) is added buffer, PAF standard or analog, or an extract to bring the aqueous volume to 150 μl. 50 μl of ^3 H-PAF (10,000 cpm, 45 Ci/mM) is added followed by 2×10^7 dog platelets. After mixing, incubating for 10 minutes at room temperature, and centrifuging for 1 minute in a Beckman Microfuge B (8000 g), the pellet is removed by clipping off the tip of the tube, solubilizing the platelets with 200 μl of 50% methanol, and counting in 10 ml of Aquasol.

pIC50: −log10 of the molar value. Like-named read-outs stand apart in the source and are kept apart here.

For `CC(C)c1ccc2nc3ccc(C(=O)NCCCCn4ccnc4)cn3c(=O)c2c1` [Compound A, N-[4-(1H-imidazol-1-yl)butyl]-2-(1-methylethyl)-11-oxo-11H-pyrido[2,1-b]quinazoline-8-carboxamide], the ED50 in test [1] (10 min, 10 minute pretreatment) came to 20 mg/kg. For the molecule `CC(C)c1ccc2nc3ccc(C(=O)NCCCCc4cccnc4)cn3c(=O)c2c1` [Compound B, 2-(1-methylethyl)-N-[4-(3-pyridyl)butyl]-11-oxo-11H-pyrido[2,1-b]quinazoline-8-carboxamide], the ED50 in test [1] (5 min, 5 minute pretreatment) was 21 mg/kg. This molecule also had a pIC50 in test [2] of 6.35.

As for `CC(C)c1ccc2nc3ccc(C(=O)NCCCCCCc4cccnc4)cn3c(=O)c2c1` [Compound C, 2-(1-Methylethyl)-N-[6-(3-pyridyl)hexyl]-11-oxo-11H-pyrido[2,1-b]quinazoline-8-carboxamide], the negative-log IC50 (pIC50) in test [2] is 6.00.

These data come from patent publication US4551460A, “Pyrido[2,1-b]quinazoline derivatives useful as agents for treatment of allergic conditions and vascular disorders involving thrombosis” (priority 1983, dated 1985).
